For eight compounds, IC50, AC50 and EC50 results are on record in ChEMBL document CHEMBL1201862, “PubChem BioAssay data set” (2004).

One assay concerns the target T1, Cysteine protease ATG4B (Homo sapiens, UniProt Q9Y4P1).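 Note: Fluorescence-based dose-response confirmation assay measuring inhibition of ATG4B activity.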
T1 sequence (Q9Y4P1 whole entry): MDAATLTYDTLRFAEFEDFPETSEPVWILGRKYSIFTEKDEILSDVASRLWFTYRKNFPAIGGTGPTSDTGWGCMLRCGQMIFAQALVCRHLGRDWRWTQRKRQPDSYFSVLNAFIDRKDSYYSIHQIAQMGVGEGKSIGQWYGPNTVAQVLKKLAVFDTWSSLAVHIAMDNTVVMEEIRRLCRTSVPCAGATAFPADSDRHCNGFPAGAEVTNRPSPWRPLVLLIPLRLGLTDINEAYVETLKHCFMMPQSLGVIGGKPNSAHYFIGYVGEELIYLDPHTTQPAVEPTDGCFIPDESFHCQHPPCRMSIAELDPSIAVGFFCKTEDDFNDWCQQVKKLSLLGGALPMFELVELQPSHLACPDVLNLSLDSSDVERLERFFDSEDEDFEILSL
It is filed as functional.

The target of another assay is Phospholipase A2 (Homo sapiens, UniProt P04054). It is filed as functional.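 Note: confirmatory dose-response counterscreen on phospholipase A2, testing hits that came from an ultra-high-throughput screen for ATG4B inhibitors.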
The target of assay [1] is T2, Sentrin-specific protease 7 (Homo sapiens, UniProt Q9BQF6).
T2 sequence (Q9BQF6 whole entry): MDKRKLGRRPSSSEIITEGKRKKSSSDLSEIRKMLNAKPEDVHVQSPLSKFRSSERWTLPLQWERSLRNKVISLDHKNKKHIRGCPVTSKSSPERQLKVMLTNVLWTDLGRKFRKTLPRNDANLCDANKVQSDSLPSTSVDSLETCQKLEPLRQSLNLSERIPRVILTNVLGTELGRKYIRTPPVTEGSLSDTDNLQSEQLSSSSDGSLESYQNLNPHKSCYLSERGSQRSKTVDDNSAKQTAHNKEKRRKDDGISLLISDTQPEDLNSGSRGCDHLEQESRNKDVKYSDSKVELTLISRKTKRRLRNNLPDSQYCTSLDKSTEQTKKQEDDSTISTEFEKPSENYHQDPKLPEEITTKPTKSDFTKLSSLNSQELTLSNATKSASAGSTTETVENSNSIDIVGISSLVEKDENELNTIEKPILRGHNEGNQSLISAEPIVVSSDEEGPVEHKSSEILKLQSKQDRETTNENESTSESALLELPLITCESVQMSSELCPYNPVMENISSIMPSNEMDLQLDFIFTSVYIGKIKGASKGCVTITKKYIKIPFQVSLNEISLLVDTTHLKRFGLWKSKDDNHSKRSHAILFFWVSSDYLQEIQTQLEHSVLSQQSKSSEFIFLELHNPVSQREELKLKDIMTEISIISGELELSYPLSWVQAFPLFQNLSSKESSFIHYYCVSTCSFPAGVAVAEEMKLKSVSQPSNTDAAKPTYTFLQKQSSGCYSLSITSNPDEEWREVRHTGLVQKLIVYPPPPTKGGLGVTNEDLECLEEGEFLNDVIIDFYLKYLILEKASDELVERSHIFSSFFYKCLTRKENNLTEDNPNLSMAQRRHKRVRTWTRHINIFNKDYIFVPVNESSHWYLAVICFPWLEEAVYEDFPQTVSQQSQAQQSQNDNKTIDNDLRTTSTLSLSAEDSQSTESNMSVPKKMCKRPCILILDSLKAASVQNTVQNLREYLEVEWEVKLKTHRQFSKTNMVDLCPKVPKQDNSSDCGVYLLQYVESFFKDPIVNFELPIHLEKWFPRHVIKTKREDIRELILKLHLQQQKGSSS
The assay can be described thus: SENP7 protease inhibitors, SAR follow-up, biochemical, luminescence (AID 504497). It is filed as functional.

The target in assay [2] is T3, Sentrin-specific protease 8 (Homo sapiens, UniProt Q96LD8).
T3 sequence (Q96LD8 whole entry): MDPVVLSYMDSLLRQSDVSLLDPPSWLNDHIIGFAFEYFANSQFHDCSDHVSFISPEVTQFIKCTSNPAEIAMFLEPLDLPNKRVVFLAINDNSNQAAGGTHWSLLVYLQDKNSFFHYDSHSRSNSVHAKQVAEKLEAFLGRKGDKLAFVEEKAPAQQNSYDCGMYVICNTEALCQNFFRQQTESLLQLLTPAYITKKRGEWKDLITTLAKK
In words: SENP8 protease inhibitors, SAR follow-up, biochemical, luminescence (AID 504501). The class given is functional.

The next assay deals with T4, Caspase-3 (Homo sapiens, UniProt P42574).
T4 sequence (P42574 whole entry): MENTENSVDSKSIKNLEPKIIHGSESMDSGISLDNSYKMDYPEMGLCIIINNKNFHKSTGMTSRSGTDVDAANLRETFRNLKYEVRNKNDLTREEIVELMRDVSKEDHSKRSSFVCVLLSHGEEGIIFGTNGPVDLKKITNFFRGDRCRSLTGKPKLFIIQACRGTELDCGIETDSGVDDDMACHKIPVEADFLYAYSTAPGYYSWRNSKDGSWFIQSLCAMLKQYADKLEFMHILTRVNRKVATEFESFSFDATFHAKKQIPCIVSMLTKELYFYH
In words: SAR Analysis of small molecule inhibitors of Sentrin-specific proteases (SENPs) using a Caspase-3 Selectivity assay. [Related pubchem assays (depositor defined):AID2540, AID2599, AID434973, AID489001]. The class given is functional.

Assay [3] concerns the target T5, Sentrin-specific protease 6 (Homo sapiens, UniProt Q9GZR1).
T5 sequence (Q9GZR1 whole entry): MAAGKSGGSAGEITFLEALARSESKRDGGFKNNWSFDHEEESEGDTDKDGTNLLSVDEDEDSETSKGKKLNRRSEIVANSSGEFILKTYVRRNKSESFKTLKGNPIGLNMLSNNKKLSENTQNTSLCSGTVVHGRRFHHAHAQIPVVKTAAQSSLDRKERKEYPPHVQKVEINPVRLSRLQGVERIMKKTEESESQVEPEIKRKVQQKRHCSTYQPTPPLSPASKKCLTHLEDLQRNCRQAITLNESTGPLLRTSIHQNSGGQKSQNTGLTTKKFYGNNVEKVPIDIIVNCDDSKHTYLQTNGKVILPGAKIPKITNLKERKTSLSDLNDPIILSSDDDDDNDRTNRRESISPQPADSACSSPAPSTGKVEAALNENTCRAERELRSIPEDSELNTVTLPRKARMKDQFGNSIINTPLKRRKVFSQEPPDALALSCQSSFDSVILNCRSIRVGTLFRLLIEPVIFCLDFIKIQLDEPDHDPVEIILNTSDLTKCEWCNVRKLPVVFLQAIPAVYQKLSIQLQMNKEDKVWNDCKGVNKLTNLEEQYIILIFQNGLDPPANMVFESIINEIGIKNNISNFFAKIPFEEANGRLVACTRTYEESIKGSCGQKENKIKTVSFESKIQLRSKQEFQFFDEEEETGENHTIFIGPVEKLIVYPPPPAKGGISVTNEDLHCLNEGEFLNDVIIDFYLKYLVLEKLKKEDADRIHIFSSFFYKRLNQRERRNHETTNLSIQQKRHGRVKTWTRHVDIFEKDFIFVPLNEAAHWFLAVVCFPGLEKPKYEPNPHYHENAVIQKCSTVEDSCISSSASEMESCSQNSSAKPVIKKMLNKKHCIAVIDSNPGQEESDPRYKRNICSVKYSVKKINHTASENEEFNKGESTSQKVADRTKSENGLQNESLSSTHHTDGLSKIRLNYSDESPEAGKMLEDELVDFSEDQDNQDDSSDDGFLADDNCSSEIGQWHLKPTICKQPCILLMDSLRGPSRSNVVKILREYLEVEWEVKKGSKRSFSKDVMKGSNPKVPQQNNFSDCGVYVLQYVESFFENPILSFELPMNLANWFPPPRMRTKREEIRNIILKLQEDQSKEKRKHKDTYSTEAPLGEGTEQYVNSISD
In words: SAR Analysis of small molecule inhibitors of Sentrin-specific protease 6 (SENP6) using a Luminescent assay. [Related pubchem assays (depositor defined):AID2582, AID2599]. It is filed as functional.

Assay [4] is described as follows: Luminescence Cell-Based Dose Retest to Confirm Inhibitors of Cancer Stem Cells. [Related pubchem assays (depositor defined):AID2717, AID2721]. The class given is functional, Homo sapiens. The note with it: Homo sapiens.
Assay [5] in a line: cytotoxicity in HMLE control line with eGFP shRNA, dose response, counter-screen for HMLE_sh_ECad selective toxicity project, cell-based, HMLE_sh_eGFP, luminescence (AID 463074).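 Note: HMLE human mammary epithelial cells expressing control shRNA against eGFP.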 The class given is functional, Homo sapiens.
Assay [6] concerns the target T6, Alkaline phosphatase, tissue-nonspecific isozyme (Homo sapiens, UniProt P05186).
T6 sequence (P05186 whole entry): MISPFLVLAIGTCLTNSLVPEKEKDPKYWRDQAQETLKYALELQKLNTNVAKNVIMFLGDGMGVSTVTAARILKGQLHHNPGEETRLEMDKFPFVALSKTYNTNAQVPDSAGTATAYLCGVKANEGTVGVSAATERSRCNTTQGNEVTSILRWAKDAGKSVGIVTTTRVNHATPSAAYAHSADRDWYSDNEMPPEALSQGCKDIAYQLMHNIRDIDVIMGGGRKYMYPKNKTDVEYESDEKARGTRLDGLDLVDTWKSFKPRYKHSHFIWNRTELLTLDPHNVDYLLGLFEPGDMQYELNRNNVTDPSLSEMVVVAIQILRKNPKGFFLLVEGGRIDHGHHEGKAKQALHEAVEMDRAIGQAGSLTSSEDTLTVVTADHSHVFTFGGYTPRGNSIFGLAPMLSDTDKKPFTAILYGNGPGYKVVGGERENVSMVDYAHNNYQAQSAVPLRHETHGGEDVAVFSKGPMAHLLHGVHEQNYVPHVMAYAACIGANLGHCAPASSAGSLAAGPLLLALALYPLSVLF
The assay can be described thus: human TNAP enzyme inhibitors, SAR follow-up, biochemical, luminescent, dose response (AID 1056).

Another assay concerns the target T7, Phosphomannomutase 2 (Homo sapiens, UniProt O15305).
T7 sequence (O15305 whole entry): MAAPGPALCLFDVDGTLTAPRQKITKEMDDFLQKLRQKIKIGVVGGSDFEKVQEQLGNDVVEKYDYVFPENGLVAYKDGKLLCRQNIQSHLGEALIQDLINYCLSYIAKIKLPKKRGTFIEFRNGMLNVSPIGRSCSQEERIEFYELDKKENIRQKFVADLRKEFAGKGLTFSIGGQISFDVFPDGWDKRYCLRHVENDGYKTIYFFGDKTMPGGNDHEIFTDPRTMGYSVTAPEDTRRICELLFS
The assay can be described thus: Counter screen SAR assay for PMM2 inhibitors via a fluorescence intensity assay. [Related pubchem assays (depositor defined):AID1545, AID1574].

Assay [7] has as its target T8, Mannose-6-phosphate isomerase (Homo sapiens, UniProt P34949).
T8 sequence (P34949 whole entry): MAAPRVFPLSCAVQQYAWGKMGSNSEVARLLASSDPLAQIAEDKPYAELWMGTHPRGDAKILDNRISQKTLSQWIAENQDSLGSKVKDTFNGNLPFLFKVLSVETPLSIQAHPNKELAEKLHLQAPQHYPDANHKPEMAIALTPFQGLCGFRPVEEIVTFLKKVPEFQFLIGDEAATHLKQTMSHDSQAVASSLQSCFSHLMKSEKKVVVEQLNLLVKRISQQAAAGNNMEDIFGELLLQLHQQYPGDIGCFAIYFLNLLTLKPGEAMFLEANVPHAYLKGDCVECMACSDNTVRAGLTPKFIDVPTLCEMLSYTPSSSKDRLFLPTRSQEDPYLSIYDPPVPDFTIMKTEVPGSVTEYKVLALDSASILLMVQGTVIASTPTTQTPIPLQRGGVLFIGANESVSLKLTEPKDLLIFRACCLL
In words: PMI enzyme inhibitors, confirmation, biochemical, fluorescence intensity (AID 1535).

Assay [8] has as its target T9, Phosphoethanolamine/phosphocholine phosphatase (Homo sapiens, UniProt Q8TCT1).
T9 sequence (Q8TCT1 whole entry): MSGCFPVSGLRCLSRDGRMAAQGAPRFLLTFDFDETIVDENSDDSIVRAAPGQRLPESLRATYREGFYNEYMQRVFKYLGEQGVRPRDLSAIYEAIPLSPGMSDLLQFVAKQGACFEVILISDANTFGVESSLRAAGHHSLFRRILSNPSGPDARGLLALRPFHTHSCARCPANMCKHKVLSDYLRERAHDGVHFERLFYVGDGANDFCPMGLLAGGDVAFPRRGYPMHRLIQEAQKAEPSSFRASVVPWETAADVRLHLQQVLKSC
The assay can be described thus: SAR assay for compounds that inhibit PHOSPHO1. [Related pubchem assays (depositor defined):AID1545, AID1565, AID1574].

Assay [9] can be described thus: cells. It is filed as functional, cell-based.
Assay [10] is described as follows: cells. It is filed as functional, cell-based. This is another data set of the same source.

Structures are written as SMILES. Active and inactive are the calls of the source.
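Throughout, for EC50: agonist potency from rise in intracellular calcium fluorescence.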

Chain of Phospholipase A2 (P04054 whole entry): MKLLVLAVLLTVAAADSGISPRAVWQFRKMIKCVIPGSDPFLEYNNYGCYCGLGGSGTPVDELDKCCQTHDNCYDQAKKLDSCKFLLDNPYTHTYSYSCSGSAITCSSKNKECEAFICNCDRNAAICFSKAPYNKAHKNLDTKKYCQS

In general, IC50 refers to the concentration at which inhibition is half-maximal. Turning to `Cc1cc(C)nc(SCc2ccc(C(=O)N/N=C3\CC(C)CC(C)(C)C3)cc2)n1` (centres undefined), the IC50 is 22.7 µM (inactive) on Cysteine protease ATG4B and 17.9 µM (active) at Phospholipase A2.

As for `Fc1ccc(/C=C/c2noc(-c3ccc(C(F)(F)F)cc3F)n2)cc1`, the IC50 (in [1]; in assay [2]; at Caspase-3; in [3]) was > 99 µM (inactive) each time.

In general, AC50 refers to the concentration giving half of the maximal activity seen. For the compound `COc1ccc(-c2cc([C@H]3[C@H]4C=CC[C@@H](C)[C@@H]4C(=O)N3Cc3ccccc3)ccc2F)cc1`, the AC50 is 2.76 µM (active) in assay [4] and 22 µM (active) in assay [5].

Consider `Cc1onc(-c2ccccc2)c1C(=O)Nc1sc2c(c1C#N)CCC(C)C2` (centres undefined), for which the AC50 in assay [4] is 1.12 µM (active); in assay [5], 26.3 µM (active).

Turning to `CCOC(=O)c1ccc(-n2sc3ccccc3c2=O)cc1`, the IC50 in assay [6] was > 100 µM (inactive); at Phosphomannomutase 2 it was > 100 µM (inactive); in assay [7] it was 23.6 µM (active); in [8] it was 1.24 µM (inactive).

Usually EC50 stands for the concentration needed to bring the measured effect to its halfway point. Take `OC(COc1ccc(CNCCc2ccccc2F)cc1)CN1CCCCC1` (centres undefined): the AC50 is > 195 µM (inactive) in assay [4] and 33.9 µM (active) in assay [5]. The IC50 in “cells [9]” was > 29.9 µM (inactive). In “cells [10]”, the EC50 was > 29.9 µM (inactive).

Turning to `CC(C)(CC(=O)Nc1scc(-c2ccc(Br)cc2)c1C(=O)O)CC(=O)Nc1scc(-c2ccc(Br)cc2)c1C(=O)O`, the IC50 (in assay [1]; in assay [2]; on Caspase-3; in [3]) was > 99 µM (inactive) in each case.

`Fc1ccc(CCN=C(S)Nc2ccc(F)c(Cl)c2)cc1`: the IC50 on Cysteine protease ATG4B was 12.4 µM (active); at Phospholipase A2, 8.38 µM (active).
